The source of these data is US20150018380A1, “Methods of Screening for Activation Deaminase Inhibitors Through Nuclear Import Inhibitors” (University of Rochester, priority 2012, published 2015).

The target in experiment [1] is T1, AID (Homo sapiens, UniProt Q9GZX7).
T1 construct: expressed in transfected cells; host or cells: HeLa S3 (lentiviral transduction, pLVTHM, EF1-alpha promoter)
Put plainly: AID-EGFP-HeLa HCS assay LOPAC screen for inhibitors of AID nuclear import. It is filed as cell-based.
Description: The LOPAC screen was performed using 20 μM of each compound in duplicate with a 3-hour incubation followed by LMB treatment.
Maximum values, set to 100% corresponds to conditions of DMSO treated cells. Minimum values, set approximately to 0%, corresponds to conditions of only 200 ng/mL LMB treatment.

Experiment [2] relates to glucocorticoid receptor. The following applies: prior screen, cited from earlier work.
Experiment [3] deals with AID-EGFP. In words: LMB / Ratjadone A response of AID-EGFP in stable HeLa AID-EGFP cells. To be noted: for AID-EGFP localization / nuclear retention: 100 ng/ml for 180 min. Type of experiment: cell-based, human. The text has this: HCS assay development involves the selection of the most appropriate cellular model (Dudgeon et al., 2010, J. Biomol. Screen, 15: 766-782; Nickischer et al., 2006, Methods Enzymol, 414: 389-418; Williams et al., 2006, Methods Enzymol, 414: 364-89). In this regard, AID shuttling is not specific to B cells, making it possible to use a variety of cell types to study AID structure and function (Okazaki et al., 2002, Nature, 416: 340-5; Yoshikawa et al., 2002 Science, 296: 2033-6). However, the ability of LMB to induce quantitative AID nuclear retention was more uniform in HeLa cells (a finding has been independently confirmed by comparing the AID responses to LMB in transiently transfected HeLa, HEK293T, U2OS, A549, CaCo2, HepG2 and CHO cells). […] Consequently, AID-EGFP was subcloned from a pIRES vector into the lentiviral vector pLVTHM (Addgene) using the EF1-α promoter to drive moderate to low level expression. pLV-AID-EGFP psuedotyped virus was transduced into HeLa S3 cells (ATCC) that were live-cell flow sorted to obtain a homogenous population of fluorescent cells. Subcloning of a cell line was not thought to be necessary given the ability to threshold fluorescence in individual cells during high content screening. These cells have been maintained in culture with little or no loss of fluorescence for 2 months. HeLa AID-EGFP cells plated into 384-well plates at varying cell densities (1,250 to 10,000 cells per well) were simultaneously fixed with formaldehyde and counter stained with Hoechst and then imaged using both the IXU Ultra and ArrayScan VTI platforms with 10× and 20× objectives. Image quantification was performed with the multi-wavelength cell scoring (MWCS) & translocation enhanced (TE) image analysis modules and the molecular translocation (MT) image algorithm for the IXU Ultra and ArrayScan VTI, respectively. Based on image acquisition, 2,500 cells per well was determined ideal for either platform regardless of the objective. […] To establish the LMB response within the context of an HCS system and assess the assay parameters, cells were treated in 384-well format with varying doses (0.2 to 200 ng/ml) of either LMB or Ratjadone A (chemically related to LMB) for varying durations up to 200 min. […] There was a 4.5-fold difference between the nuclear to cytoplasmic (N/C) fluorescence ratio of LMB-treated cells and cells only treated with the solvent for LMB (0.5% methanol).
For the LOPAC high content screen (HCS), 2,500 AID-EGFP-HeLa cells were cultured per well on a 384-well plate. Cells were seeded and cultured overnight. Cells were exposed to 20 μM of test compound for 3 hours, followed by a 200 ng/mL LMB treatment for 3 hours. Experiments were run in duplicate. […]

Experiment [4] deals with CRM1 (Homo sapiens, UniProt O14980). The following applies: cited from earlier work.
Experiment [5] relates to hnRNP A1. In words: LMB response in HEK293T cells transiently cotransfected with ACF-EGFP and mCherry-hnRNPA1: hnRNP A1. Type of experiment: cell-based, human. The following applies: LMB treatment; transiently transfected HEK293T. The text has this: (§1) Wild type human ACF, hnRNP A1, and TALDO1 cDNAs are obtained from BlueHeron (NM_014576.2, NM_002136.2 and NM_006755.1) cDNAs for ACF and A1 were subcloned into pGEM3 and pIRES, respectively. Criteria used for transient transfection, validating protein expression and determining appropriate N/C ratio baselines are described elsewhere herein. Two counter screens for shuttling proteins, run in parallel enable the identification of AID-selective nuclear import inhibitors.
(§2) Data presented herein show images from HEK293T cells 24 hr after being transiently cotransfected with ACF-EGFP and mCherry-hnRNPA1. FIG. 5G through FIG. 5I show images from a 384-well plate for EGFP-ACF, mCherry-hnRNPA1 and two color composite respectively. […] ACF and hnRNP A1 are selected because they shuttle using different mechanism than AID and because their function in the cell differs markedly from one another and from AID and H1. ACF binds to RNA through RNP domains that comprise three separate and centrally located RNA Recognition Motifs (RRM), required for ACF's function as an editing site recognition cofactor for APOBEC1 mRNA editing activity in the cell nucleus (Hintersteiner et al., 2010, ACS Chem Biol, 5(10): 967-79). […] ACF nuclear import is determined by a unique amino acid motif centrally located and a Cterminal, CRM1-dependent nuclear export signal (Chahine et al., 2009, Pharmacol Rev, 61(3): 358-72).

Experiment [6] relates to AID-EGFP. In words: LMB response in HEK293T cells transiently co-transfected with AID-EGFP and mCherry-H1: AID. It is filed as cell-based, human. On the procedure:
(§3) HEK293T cells in 40 μl were plated robotically into 384-well plates using a Multi-Drop (ThermoScientific) such that in 24 hours the cell density is approximately 60% confluency. EGFP-AID and mCherry-H1 plasmids were mixed at a 1:1 molar ratio in Turbofect reagent as per the manufacture's protocol (Fermentas) and dispensed from a trough into the 384-well HEK293T cell cultures with a Perkin Elmer Janus robot liquid handling system. Each well received 25 ng of total plasmid DNA and uniform dispersal of the transfection mixture was ensured by placing the plates on the Perkin Elmer plate mixer at the highest speed setting for 30 sec. Due to the small culture volume, there was no effect on cell attachment to the plates but was critical for uniform transfection. Ranges of both EGFP-AID: mCherry-H1 plasmid ratios and amount of total plasmid DNA required for transfection of cells in 384-well format were evaluated. For current plasmid stocks, a 1:1 plasmid ratio gave the most consistent expression of both proteins.
(§4) Co-expression of other counter screen proteins and their response to LMB was evaluated using co-transfected HEK293T cells. […]

Experiment [7] deals with histone H1. Put plainly: LMB response in HEK293T cells transiently co-transfected with AID-EGFP and mCherry-H1: H1. Type of experiment: cell-based, human. To be noted: LMB treatment. On the procedure: as §3, §4
The test system of experiment [8] is TALDO1. In words: LMB response in 293T cells transiently co-transfected with AID-EGFP and mCherry-TALDO1: TALDO1. Type of experiment: cell-based, human. The following applies: LMB treatment; 293T co-transfected with AID-EGFP. The method, then:
(§5) TALDO1 in pIRES was transiently co-transfected with AID-EGFP in 293T cells and fluorescence images taken 24 hours post-transfection. AID-EGFP was predominantly cytoplasmic while mCherry-TALDO1 was predominantly nuclear (FIG. 5P through FIG. 5R). […] It is concluded that co-expression of AID and TALDO1 is achievable and that the proteins have different N/C ratios even though they use the same importins.

The test system of experiment [9] is AID-EGFP. In words: LMB response in HeLa cell line stably expressing AID-EGFP and mCherry-TALDO1: AID. It is filed as cell-based, human. To be noted: LMB treatment; stable HeLa AID-EGFP/mCherry-TALDO1. An excerpt:
(§6) A HeLa cell line stably expressing equivalent levels of AID-EGFP and mCherry-TALDO1 was established by transducing cells with a lentiviral vector encoding AID-EGFP. mCherry-TALDO1 was transfected/selected after the AID-EGFP line was sorted and selected. The cell line was then sorted for the co-expression of both proteins.
(§7) FIG. 23 depicts the expression of AID-EGFP and mCherry-TALDO1, as measured by flow cytometry (FIG. 23A) and western blot (FIG. 23B). […] FIG. 24 depicts the localization of AID-EGFP and mCherry-TALDO1 in control treated cells and LMB treated cells. […] This cell line is then used in a simultaneous primary/counter screen for compounds that selectively alter AID import, while not affecting TALDO1 localization.

Experiment [10] has as its system mCherry-TALDO1. In words: LMB response in HeLa cell line stably expressing AID-EGFP and mCherry-TALDO1: TALDO1. It is filed as cell-based, human. The following applies: LMB treatment; stable HeLa AID-EGFP/mCherry-TALDO1.
From the text: as §6, §7

For experiment [11], the system named is ACF. Put plainly: LMB response in HEK293T cells transiently cotransfected with ACF-EGFP and mCherry-hnRNPA1: ACF. It is filed as cell-based, human. To be noted: LMB treatment; transiently transfected HEK293T.
From the text: as §1, §2

The subject of experiment [12] is AID-EGFP. In words: LMB response in 293T cells transiently co-transfected with AID-EGFP and mCherry-TALDO1: AID. Type of experiment: cell-based, human. The following applies: LMB treatment; 293T co-transfected with mCherry-TALDO1. On the procedure: as §5
Setting [13] is: 20 μM compound for 3 hours, then 200 ng/mL LMB for 3 hours, AID-EGFP-HeLa cells, 2,500 cells/well, duplicate.

“Also recorded” adds a separate entry of the source. Read-outs that look alike come from different tables or passages of the source.

A word on the inhibition: it is how much of the control response was suppressed.

T1 sequence (Q9GZX7 whole entry): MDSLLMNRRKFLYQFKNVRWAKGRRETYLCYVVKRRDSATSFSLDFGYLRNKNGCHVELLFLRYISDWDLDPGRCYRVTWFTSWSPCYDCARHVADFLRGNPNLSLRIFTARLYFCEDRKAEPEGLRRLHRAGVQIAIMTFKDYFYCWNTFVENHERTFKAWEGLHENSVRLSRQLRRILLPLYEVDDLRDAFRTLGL
Sequence of CRM1 (O14980 whole entry): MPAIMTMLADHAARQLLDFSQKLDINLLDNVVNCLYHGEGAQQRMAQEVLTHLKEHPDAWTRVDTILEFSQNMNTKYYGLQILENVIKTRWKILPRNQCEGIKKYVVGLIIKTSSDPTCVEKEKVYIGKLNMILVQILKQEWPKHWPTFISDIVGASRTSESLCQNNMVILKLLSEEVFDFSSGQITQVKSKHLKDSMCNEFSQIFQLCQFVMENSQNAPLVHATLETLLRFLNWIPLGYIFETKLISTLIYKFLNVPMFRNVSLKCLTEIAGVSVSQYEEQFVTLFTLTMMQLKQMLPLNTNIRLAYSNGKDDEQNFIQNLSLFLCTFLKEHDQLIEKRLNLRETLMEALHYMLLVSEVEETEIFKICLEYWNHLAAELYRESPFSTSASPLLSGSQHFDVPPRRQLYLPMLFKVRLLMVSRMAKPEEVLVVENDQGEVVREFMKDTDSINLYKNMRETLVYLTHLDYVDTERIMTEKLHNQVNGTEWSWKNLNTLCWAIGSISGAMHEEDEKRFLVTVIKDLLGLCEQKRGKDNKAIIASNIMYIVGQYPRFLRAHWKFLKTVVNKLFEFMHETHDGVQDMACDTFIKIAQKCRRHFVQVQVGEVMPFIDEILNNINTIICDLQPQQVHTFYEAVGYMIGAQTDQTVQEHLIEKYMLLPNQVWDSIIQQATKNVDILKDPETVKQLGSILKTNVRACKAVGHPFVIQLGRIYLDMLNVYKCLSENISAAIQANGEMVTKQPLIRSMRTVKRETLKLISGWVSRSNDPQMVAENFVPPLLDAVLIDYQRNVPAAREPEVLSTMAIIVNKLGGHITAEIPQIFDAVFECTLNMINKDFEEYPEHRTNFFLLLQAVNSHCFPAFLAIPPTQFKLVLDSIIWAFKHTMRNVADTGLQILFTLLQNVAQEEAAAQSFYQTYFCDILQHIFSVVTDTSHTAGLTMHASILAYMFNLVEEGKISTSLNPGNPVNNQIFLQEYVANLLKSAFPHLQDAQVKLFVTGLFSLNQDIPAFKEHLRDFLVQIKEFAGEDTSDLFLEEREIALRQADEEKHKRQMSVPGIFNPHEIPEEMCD

For `CC(C)(C)c1ccc(S(=O)(=O)/C=C/C#N)cc1` [Bay 11-7085], in [1] (setting [13]), the “inhibition of AID nuclear import” value is recorded as “greater than 50%”. The “nuclear import of the glucocorticoid receptor” value in experiment [2] is reported as “inhibit the nuclear import of the glucocorticoid receptor”; in [2] (listed as SID 53777289) it was “inhibited nuclear import of the glucocorticoid receptor”.
As for `Cc1c2ccncc2c(C)c2c1[nH]c1ccccc12` [Ellipticine], the inhibition at 20 µM in experiment [1] (setting [13]) was greater than 50%.
On the same count and under the same terms, under `CN(C)S(=O)(=O)c1ccc2c(c1)/C(=C/c1cc3c([nH]1)CCCC3)C(=O)N2` [SU 6656] stands greater than 50%.
For the compound Ratjadone A, the “AID-EGFP localization / nuclear retention” value in experiment [3] (HeLa AID-EGFP cells) is listed as “maximal nuclear retention of AID-EGFP; also recorded: nuclear AID-EGFP localization”.
On to `Cl.Cl.O=C1c2c(O)ccc(O)c2C(=O)c2c(NCCNCCO)ccc(NCCNCCO)c21` [M6545], for which the “fluorescence interference (false positive hit)” value in experiment [1] (LOPAC screen, 20 μM) was “false positive autofluorescent”.
As for `CCC(=C/[C@H](C)C/C=C/C(C)=C/[C@@H](C)C(=O)[C@@H](C)[C@H](O)[C@@H](C)C/C(C)=C/C(=O)O)/C=C/[C@@H]1OC(=O)C=C[C@@H]1C` [LMB, Leptomycin B], the “CRM1-mediated nuclear export of AID” value in [4] was “inhibited”. In experiment [5], the “hnRNP A1 localization” value is on record as “does not respond”. For the same compound, the AID-EGFP nuclear retention result is “increased retention in their nuclei; also recorded: selective redistribution of AID-EGFP” in experiment [6] (50 ng/ml LMB for 90 min, transiently transfected HEK293T) and “significant nuclear retention of AID-EGFP; also recorded: selective redistribution of AID-EGFP” in experiment [12]. Also, the “effect of increasing LMB above 50 ng/ml on EGFP-AID retained in the nucleus” value in [6] (transient system, HEK293T) is recorded as “did not increase the amount of EGFP-AID retained in the nucleus”. Besides, the “histone H1 localization” value in experiment [7] is recorded as “remained nuclear; also recorded: do not affect H1 nuclear localization”. For the same compound, the “nuclear mCherry fluorescence due to TALDO1” value in [8] is on record as “did not noticeably affect”. The “AID-EGFP localization / nuclear retention” value in [3] (HeLa AID-EGFP cells) is “maximal nuclear retention of AID-EGFP; also recorded: nuclear AID-EGFP localization”. The “nuclear localization of AID-EGFP” value in [3] (200 ng/mL LMB for 3 hours, control AID-EGFP-HeLa cells without test compound) is recorded as “approximately 80%”. For the same compound, in [3] (HeLa AID-EGFP cells, 384-well), the “difference in nuclear to cytoplasmic (N/C) fluorescence ratio versus solvent (0.5% methanol) treated cells” value is on record as 4.5 fold. Also, in [9], the AID-EGFP localization result is reported as “shift localization from primarily cytoplasmic to primarily nuclear”. For the same compound, the mCherry-TALDO1 localization result in experiment [10] is on record as “remained nuclear”. In experiment [11], the ACF localization entry is “nuclear retention of ACF; also recorded: redistribution of ACF-EGFP”.
Turning to `O=C1c2c(O)ccc(O)c2C(=O)c2c(NCCNCCO)ccc(NCCNCCO)c21` [Mitoxantrone], the inhibition at 20 µM in experiment [1] (setting [13]) is greater than 50%.
